Legend:
Alternaia brassicicola = experiment: Test Example C: Alternaria sooty spot on cabbage; assay type: in vivo; settings: for Test C control value class: class of control value
Excerpt: Seeds of a test plant (cabbage variety: Shikidori) were planted and cultivated until the cotyledons extended.
<Control Value> Control value=100{1−(n/3)}

Phytophthora infestans = experiment: whole plant or invertebrate; assay type: in vivo; settings: for Test F control value class: class of control value
[1] = test system: Colletotrichum orbiculare; experiment: Test Example H: Anthracnose on cucumber; settings: for Test H control value: 6 to 10 days after inoculation; for Test H control value class: Anthracnose on cucumber (Sagami Hanjiro), 2.5 ml/pot, assessed 6 to 10 days after inoculation
Botrytis cinerea = experiment: Test Example B: Gray mold on tomato; settings: for Test B control value class: class of control value
Puccinia recondita = experiment: Test Example E: Brown rust on wheat; assay type: in vivo; settings: for Test E control value class: class of control value
Magnaporthe grisea = experiment: whole plant or invertebrate; assay type: in vivo; settings: for Test A control value class: class of control value
Plasmopara viticola = experiment: Test Example G: Downy mildew on vine; settings: for Test G control value: 7 to 10 days after inoculation; for Test G control value class: Downy mildew on vine (Neomuscat), 2.5 ml/pot, assessed 7 to 10 days after inoculation
[2] = test system: Blumeria graminis f. sp. hordei; experiment: Test Example D: Powdery mildew on barley; settings: for Test D control value class: class of control value
[3] = Alternaria sooty spot on cabbage, control value class
[4] = Late blight on tomato, control value class
[5] = Anthracnose on cucumber, 250 ppm spray
[6] = Gray mold on tomato, control value class
[7] = Brown rust on wheat, control value class
[8] = Blast on rice, control value class
[9] = Downy mildew on vine, 250 ppm spray
[10] = Powdery mildew on barley, control value class
[11] = 250 ppm drug solution sprayed on test plant
[12] = 250 ppm drug solution sprayed (2.5 ml/pot), cucumber Sagami Hanjiro
[13] = 250 ppm drug solution sprayed (2.5 ml/pot), grape Neomuscat
[14] = Alternaria sooty spot on cabbage

SMILES: CCc1cc(Cl)c(=O)n(CC)c1-c1ccc(F)cc1Cl [compound 189]
- Test C control value (Alternaia brassicicola; [3]): H (more than 50% control value)
- Test F control value (Phytophthora infestans; [4]): L (50% or less control value)
- Test H control value [1, 5]: H (more than 50% control value)
- Test B control value (Botrytis cinerea; [6]): H (more than 50% control value)
- Test E control value (Puccinia recondita; [7]): H (more than 50% control value)
- Test A control value (Magnaporthe grisea; [8]): H (more than 50% control value)
- Test G control value (Plasmopara viticola; [9]): H (more than 50% control value)
- Test D control value [2, 10]: H (more than 50% control value)

SMILES: CCCc1cc(I)c(=O)n(CCC)c1-c1c(F)cc(OC)cc1F [compound 445]
- Test C control value (Alternaia brassicicola; [11]): H (more than 50% control value)
- Test F control value (Phytophthora infestans; [11]): L (50% or less control value)
- Test H control value [1, 12]: H (more than 50% control value)
- Test B control value (Botrytis cinerea; [11]): H (more than 50% control value)
- Test E control value (Puccinia recondita; [11]): H (more than 50% control value)
- Test A control value (Magnaporthe grisea; [11]): L (50% or less control value)
- Test G control value (Plasmopara viticola; [13]): L (50% or less control value)
- Test D control value [2, 11]: L (50% or less control value)

SMILES: CCCc1ccc(=O)n(CC)c1-c1c(F)cc(F)cc1F [compound 372]
- Test C control value (Alternaia brassicicola; [3]): H (more than 50% control value)
- Test F control value (Phytophthora infestans; [4]): L (50% or less control value)
- Test H control value [1, 5]: H (more than 50% control value)
- Test B control value (Botrytis cinerea; [6]): H (more than 50% control value)
- Test E control value (Puccinia recondita; [7]): H (more than 50% control value)
- Test A control value (Magnaporthe grisea; [8]): L (50% or less control value)
- Test G control value (Plasmopara viticola; [9]): H (more than 50% control value)
- Test D control value [2, 10]: H (more than 50% control value)

SMILES: CCn1c(-c2ccc(F)cc2C)c(CC(C)C)cc(Cl)c1=O [compound 203]
- Test C control value (Alternaia brassicicola; [3]): H (more than 50% control value)
- Test F control value (Phytophthora infestans; [4]): H (more than 50% control value)
- Test H control value [1, 5]: H (more than 50% control value)
- Test B control value (Botrytis cinerea; [6]): H (more than 50% control value)
- Test E control value (Puccinia recondita; [7]): H (more than 50% control value)
- Test A control value (Magnaporthe grisea; [8]): H (more than 50% control value)
- Test G control value (Plasmopara viticola; [9]): H (more than 50% control value)
- Test D control value [2, 10]: H (more than 50% control value)

SMILES: CCn1c(-c2ccc(F)cc2)c(C(C)(F)C(C)C)cc(Cl)c1=O (centres unmarked) [compound 217]
- Test C control value (Alternaia brassicicola; [3]): H (more than 50% control value)
- Test F control value (Phytophthora infestans; [4]): L (50% or less control value)
- Test H control value [1, 5]: H (more than 50% control value)
- Test B control value (Botrytis cinerea; [6]): H (more than 50% control value)
- Test E control value (Puccinia recondita; [7]): H (more than 50% control value)
- Test A control value (Magnaporthe grisea; [8]): H (more than 50% control value)
- Test G control value (Plasmopara viticola; [9]): L (50% or less control value)
- Test D control value [2, 10]: H (more than 50% control value)

SMILES: CCn1c(-c2c(F)cc(OCCOC)cc2F)c(C(C)(C)C)cc(Cl)c1=O [compound 83]
- Test C control value class (Alternaia brassicicola; [14]): H (more than 50% control value)
- Test F control value class (Phytophthora infestans; Late blight on tomato): L (50% or less control value)
- Test H control value class ([1]; 250 ppm spray): H (more than 50% control value)
- Test B control value class (Botrytis cinerea; Gray mold on tomato): H (more than 50% control value)
- Test E control value class (Puccinia recondita; Brown rust on wheat): H (more than 50% control value)
- Test A control value class (Magnaporthe grisea; Blast on rice): H (more than 50% control value)
- Test G control value class (Plasmopara viticola; 250 ppm spray): H (more than 50% control value)
- Test D control value class ([2]; Powdery mildew on barley): L (50% or less control value)

SMILES: CCc1cc(Br)c(=O)n(CC)c1-c1ccc(OC)cc1Br [compound 346]
- Test C control value (Alternaia brassicicola; [3]): H (more than 50% control value)
- Test F control value (Phytophthora infestans; [4]): L (50% or less control value)
- Test H control value [1, 5]: H (more than 50% control value)
- Test B control value (Botrytis cinerea; [6]): H (more than 50% control value)
- Test E control value (Puccinia recondita; [7]): H (more than 50% control value)
- Test A control value (Magnaporthe grisea; [8]): H (more than 50% control value)
- Test G control value (Plasmopara viticola; [9]): H (more than 50% control value)
- Test D control value [2, 10]: L (50% or less control value)

SMILES: CCCc1cc(Br)c(=O)n(CCC)c1-c1c(F)cc(F)cc1F [compound 440]
- Test C control value (Alternaia brassicicola; [11]): L (50% or less control value)
- Test F control value (Phytophthora infestans; [11]): L (50% or less control value)
- Test H control value [1, 12]: L (50% or less control value)
- Test B control value (Botrytis cinerea; [11]): L (50% or less control value)
- Test E control value (Puccinia recondita; [11]): L (50% or less control value)
- Test A control value (Magnaporthe grisea; [11]): H (more than 50% control value)
- Test G control value (Plasmopara viticola; [13]): L (50% or less control value)
- Test D control value [2, 11]: L (50% or less control value)

SMILES: CCc1cc(Br)c(=O)n(CC)c1-c1c(F)cc(F)cc1F [compound 387]
- Test C control value (Alternaia brassicicola; [11]): H (more than 50% control value)
- Test F control value (Phytophthora infestans; [11]): L (50% or less control value)
- Test H control value [1, 12]: H (more than 50% control value)
- Test B control value (Botrytis cinerea; [11]): H (more than 50% control value)
- Test E control value (Puccinia recondita; [11]): H (more than 50% control value)
- Test A control value (Magnaporthe grisea; [11]): H (more than 50% control value)
- Test G control value (Plasmopara viticola; [13]): H (more than 50% control value)
- Test D control value [2, 11]: H (more than 50% control value)

SMILES: CCC1=C(c2ccc(F)cc2Cl)N(C)C(=S)CC1 [compound 313]
- Test C control value (Alternaia brassicicola; [3]): L (50% or less control value)
- Test F control value (Phytophthora infestans; [4]): L (50% or less control value)
- Test H control value [1, 5]: L (50% or less control value)
- Test B control value (Botrytis cinerea; [6]): L (50% or less control value)
- Test E control value (Puccinia recondita; [7]): L (50% or less control value)
- Test A control value (Magnaporthe grisea; [8]): L (50% or less control value)
- Test G control value (Plasmopara viticola; [9]): H (more than 50% control value)
- Test D control value [2, 10]: L (50% or less control value)

SMILES: CCC(C)C1=C(c2c(F)cc(OC)cc2F)N(CC)C(=O)C(Br)C1 (centres unmarked) [compound 36]
- Test C control value class (Alternaia brassicicola; [14]): H (more than 50% control value)
- Test F control value class (Phytophthora infestans; Late blight on tomato): L (50% or less control value)
- Test H control value class ([1]; 250 ppm spray): H (more than 50% control value)
- Test B control value class (Botrytis cinerea; Gray mold on tomato): H (more than 50% control value)
- Test E control value class (Puccinia recondita; Brown rust on wheat): H (more than 50% control value)
- Test A control value class (Magnaporthe grisea; Blast on rice): H (more than 50% control value)
- Test G control value class (Plasmopara viticola; 250 ppm spray): H (more than 50% control value)
- Test D control value class ([2]; Powdery mildew on barley): H (more than 50% control value)

SMILES: CCC(=O)c1cc(Cl)c(=O)n(C)c1-c1c(F)cc(F)cc1F [compound 495]
- Test C control value (Alternaia brassicicola; [11]): H (more than 50% control value)
- Test F control value (Phytophthora infestans; [11]): L (50% or less control value)
- Test H control value [1, 12]: L (50% or less control value)
- Test B control value (Botrytis cinerea; [11]): H (more than 50% control value)
- Test E control value (Puccinia recondita; [11]): H (more than 50% control value)
- Test A control value (Magnaporthe grisea; [11]): L (50% or less control value)
- Test G control value (Plasmopara viticola; [13]): L (50% or less control value)
- Test D control value [2, 11]: H (more than 50% control value)

SMILES: CCn1c(-c2c(F)cc(OC)cc2F)c(C(C)(CC)OC)cc(Br)c1=O (centres unmarked) [compound 486]
- Test C control value (Alternaia brassicicola; [11]): H (more than 50% control value)
- Test F control value (Phytophthora infestans; [11]): L (50% or less control value)
- Test H control value [1, 12]: H (more than 50% control value)
- Test B control value (Botrytis cinerea; [11]): H (more than 50% control value)
- Test E control value (Puccinia recondita; [11]): H (more than 50% control value)
- Test A control value (Magnaporthe grisea; [11]): H (more than 50% control value)
- Test G control value (Plasmopara viticola; [13]): L (50% or less control value)
- Test D control value [2, 11]: H (more than 50% control value)

SMILES: CCn1c(-c2c(F)cc(F)cc2F)c(C(=O)C(C)C)cc(Cl)c1=O [compound 66]
- Test C control value class (Alternaia brassicicola; [14]): H (more than 50% control value)
- Test F control value class (Phytophthora infestans; Late blight on tomato): L (50% or less control value)
- Test H control value class ([1]; 250 ppm spray): H (more than 50% control value)
- Test B control value class (Botrytis cinerea; Gray mold on tomato): H (more than 50% control value)
- Test E control value class (Puccinia recondita; Brown rust on wheat): H (more than 50% control value)
- Test A control value class (Magnaporthe grisea; Blast on rice): H (more than 50% control value)
- Test G control value class (Plasmopara viticola; 250 ppm spray): L (50% or less control value)
- Test D control value class ([2]; Powdery mildew on barley): H (more than 50% control value)

SMILES: CCc1cc(Br)c(=O)n(CC)c1-c1ccc(F)cc1Cl [compound 186]
- Test C control value (Alternaia brassicicola; [3]): H (more than 50% control value)
- Test F control value (Phytophthora infestans; [4]): L (50% or less control value)
- Test H control value [1, 5]: H (more than 50% control value)
- Test B control value (Botrytis cinerea; [6]): H (more than 50% control value)
- Test E control value (Puccinia recondita; [7]): H (more than 50% control value)
- Test A control value (Magnaporthe grisea; [8]): H (more than 50% control value)
- Test G control value (Plasmopara viticola; [9]): H (more than 50% control value)
- Test D control value [2, 10]: H (more than 50% control value)

SMILES: CCn1c(-c2c(F)cccc2OC)c(CC(C)C)cc(Br)c1=O [compound 96]
- Test C control value class (Alternaia brassicicola; [14]): H (more than 50% control value)
- Test F control value class (Phytophthora infestans; Late blight on tomato): L (50% or less control value)
- Test H control value class ([1]; 250 ppm spray): H (more than 50% control value)
- Test B control value class (Botrytis cinerea; Gray mold on tomato): H (more than 50% control value)
- Test E control value class (Puccinia recondita; Brown rust on wheat): H (more than 50% control value)
- Test A control value class (Magnaporthe grisea; Blast on rice): L (50% or less control value)
- Test G control value class (Plasmopara viticola; 250 ppm spray): L (50% or less control value)
- Test D control value class ([2]; Powdery mildew on barley): H (more than 50% control value)

— patent publication US11147272B2, “Pyridone compounds and agricultural and horticultural fungicides comprising the same as active ingredients” (MITSUI CHEMICALS AGRO, INC., priority 2017, dated 2021)
